Key:
Assay type in all cases: cell-based
[1] = system: Glomerella lagenarium (Colletotrichum lagenarium); assay: Glomerella lagenarium (Colletotrichum lagenarium) / liquid culture (anthracnose); details: Colletotrichum orbiculare, PDB potato dextrose broth, 24° C., 3-4 days after application, read-out: control of Glomerella lagenarium (inhibition of growth, photometric)
Method: (§1) Example B3: Glomerella lagenarium (Colletotrichum lagenarium)/Liquid Culture (Anthracnose) Conidia of the fungus from cryogenic storage are directly mixed into nutrient broth (PDB potato dextrose broth). After placing a (DMSO) solution of test compound into a microtiter plate (96-well format), the nutrient broth containing the fungal spores is added. The test plates are incubated at 24° C. and the inhibition of growth is measured photometrically 3-4 days after application. […] […]-191.

[2] = system: Mycosphaerella graminicola (Septoria tritici); assay: Mycosphaerella graminicola (Septoria tritici) / liquid culture (Septoria blotch); details: Zymoseptoria tritici, PDB potato dextrose broth, 24° C., 4-5 days after application, read-out: control of Mycosphaerella graminicola (inhibition of growth, photometric)
Method: as §1, with “B15: Mycosphaerella graminicola (Septoria tritici)/Liquid” for “B3: Glomerella lagenarium (Colletotrichum lagenarium)/Liquid”, “(Septoria Blotch)” for “(Anthracnose)”, “determined” for “measured”, “4-5” for “3-4”

[3] = system: Monographella nivalis (Microdochium nivale); assay: Monographella nivalis (Microdochium nivale) / liquid culture (foot rot cereals); details: PDB potato dextrose broth, 24° C., 4-5 days after application, read-out: control of Monographella nivalis (inhibition of growth, photometric)
Method: Example B7: Monographella nivalis (Microdochium nivale)/Liquid Culture (Foot Rot Cereals) Conidia of the fungus from cryogenic storage are directly mixed into nutrient broth (PDB potato dextrose broth). After placing a (DMSO) solution of test compound into a microtiter plate (96-well format), the nutrient broth containing the fungal spores is added. The test plates are incubated at 24° C. and the inhibition of growth is determined photometrically 4-5 days after application. […] […]-190.

Row | SMILES | inhibition at 20 ppm [1] [%] | inhibition at 20 ppm [2] [%] | inhibition at 20 ppm [3] [%]
1 | COc1ccc(Nc2cc(F)cc(F)c2)nc1C(=O)NCc1cccc2c1OC(F)(F)O2 [Compound P-58, 6-(3,5-difluoroanilino)-N-[(2,2-difluoro-1,3-benzodioxol-4-yl)methyl]-3-methoxy-pyridine-2-carboxamide] | ≥ 80 | ≥ 80 | –
2 | CC1(C)CCC1NC(=O)c1nc(Nc2cncc(F)c2)ccc1O (stereo not drawn) [Compound P-12, N-(2,2-dimethylcyclobutyl)-6-[(5-fluoro-3-pyridyl)amino]-3-hydroxy-pyridine-2-carboxamide] | – | – | ≥ 80
3 | COc1ccc(Nc2cc(F)cc(F)c2)nc1C(=O)NCC1(c2ccc(C(F)(F)F)cn2)CC1 [Compound P-72, 6-(3,5-difluoroanilino)-3-methoxy-N-[[1-[5-(trifluoromethyl)-2-pyridyl]cyclopropyl]methyl]pyridine-2-carboxamide] | ≥ 80 | – | –
4 | COc1ccc(Nc2cnsc2)nc1C(=O)NCC#CC(C)(C)C [Compound P-34, N-(4,4-dimethylpent-2-ynyl)-6-(isothiazol-4-ylamino)-3-methoxy-pyridine-2-carboxamide] | – | ≥ 80 | –
5 | COc1ccc(Nc2ccc(C)cc2)nc1C(=O)NCC(C)(C)C [Compound P-141, N-(2,2-dimethylpropyl)-3-methoxy-6-(4-methylanilino)pyridine-2-carboxamide] | ≥ 80 | – | –
6 | COc1ccc(Nc2nccs2)nc1C(=O)NC1CCC1(C)C (stereo not drawn) [Compound P-5, N-(2,2-dimethylcyclobutyl)-3-methoxy-6-(thiazol-2-ylamino)pyridine-2-carboxamide] | – | – | ≥ 80
7 | CC1(C)CCC1NC(=O)c1nc(Nc2ccnc(Cl)c2)ccc1O (stereo not drawn) [Compound P-14, 6-[(2-chloro-4-pyridyl)amino]-N-(2,2-dimethylcyclobutyl)-3-hydroxy-pyridine-2-carboxamide] | ≥ 80 | – | ≥ 80
8 | COc1ccc(Nc2ccc(Cl)c(Cl)c2)nc1C(=O)NC(C)(C)C [Compound P-149, N-tert-butyl-6-(3,4-dichloroanilino)-3-methoxy-pyridine-2-carboxamide] | ≥ 80 | – | –
9 | COc1cc(Nc2cc(F)cc(F)c2)nc(C(=O)NC2CCC2(C)C)c1 (stereo not drawn) [Compound P-101, 6-(3,5-difluoroanilino)-N-(2,2-dimethylcyclobutyl)-4-methoxy-pyridine-2-carboxamide] | ≥ 80 | – | –
10 | COc1ccc(Nc2cncc(C(F)(F)F)c2)nc1C(=O)NC(C)(C)C [Compound P-163, N-tert-butyl-3-methoxy-6-[[5-(trifluoromethyl)-3-pyridyl]amino]pyridine-2-carboxamide] | ≥ 80 | – | –
11 | CC1(C)CCC1NC(=O)c1nc(Nc2cncnc2)ccc1O (stereo not drawn) [Compound P-15, N-(2,2-dimethylcyclobutyl)-3-hydroxy-6-(pyrimidin-5-ylamino)pyridine-2-carboxamide] | – | – | ≥ 80
12 | COc1ccc(Nc2ccc(C(F)(F)F)cc2)nc1C(=O)NC(C)(C)C [Compound P-150, N-tert-butyl-3-methoxy-6-[4-(trifluoromethyl)anilino]pyridine-2-carboxamide] | ≥ 80 | – | ≥ 80
13 | COCC(=O)Oc1ccc(N(C(=O)COC)c2cc(F)cc(F)c2)nc1C(=O)NC1CCC1(C)C (stereo not drawn) [Compound P-24, [6-(3,5-difluoro-N-(2-methoxyacetyl)anilino)-2-[(2,2-dimethylcyclobutyl)carbamoyl]-3-pyridyl] 2-methoxyacetate] | ≥ 80 | – | –
14 | COc1ccc(Nc2cc(F)c(Cl)c(F)c2)nc1C(=O)NCC(C)(C)C [Compound P-135, 6-(4-chloro-3,5-difluoro-anilino)-N-(2,2-dimethylpropyl)-3-methoxy-pyridine-2-carboxamide] | – | ≥ 80 | –
15 | COc1ccc(Nc2cc(F)cc(F)c2)nc1C(=O)NCC#CC(C)(C)C [Compound P-28, 6-(3,5-difluoroanilino)-N-(4,4-dimethylpent-2-ynyl)-3-methoxy-pyridine-2-carboxamide] | – | ≥ 80 | –
16 | COc1ccc(Nc2ccc3cnn(Cc4ccccc4)c3c2)nc1C(=O)NC(C)(C)C [Compound P-165, 6-[(1-benzylindazol-6-yl)amino]-N-tert-butyl-3-methoxy-pyridine-2-carboxamide] | ≥ 80 | – | –
17 | COc1ccc(Nc2ccc(Cl)c(C)c2)nc1C(=O)NC(C)(C)C [Compound P-158, N-tert-butyl-6-(4-chloro-3-methyl-anilino)-3-methoxy-pyridine-2-carboxamide] | ≥ 80 | – | –

Row | SMILES | inhibition at 20 ppm [1] [%] | inhibition at 20 ppm [2] [%] | inhibition at 20 ppm [3] [%]
18 | CC(C)(C)CNC(=O)c1nc(Nc2cc(F)nc(F)c2I)ccc1O [Compound P-106, 6-[(2,6-difluoro-3-iodo-4-pyridyl)amino]-N-(2,2-dimethylpropyl)-3-hydroxy-pyridine-2-carboxamide] | – | – | ≥ 80
19 | COc1ccc(Nc2cnsc2)nc1C(=O)NCc1cccc2c1OC(F)(F)O2 [Compound P-82, N-[(2,2-difluoro-1,3-benzodioxol-4-yl)methyl]-6-(isothiazol-4-ylamino)-3-methoxy-pyridine-2-carboxamide] | ≥ 80 | – | ≥ 80
20 | COc1ccc(Nc2ccc(Cl)c(C)c2)nc1C(=O)NCC(C)(C)C [Compound P-138, 6-(4-chloro-3-methyl-anilino)-N-(2,2-dimethylpropyl)-3-methoxy-pyridine-2-carboxamide] | ≥ 80 | – | ≥ 80
21 | COc1ccc(Nc2cc(F)cc(F)c2)nc1C(=O)NCc1cc(C(F)(F)F)cc(C(F)(F)F)c1 [Compound P-115, N-[[3,5-bis(trifluoromethyl)phenyl]methyl]-6-(3,5-difluoroanilino)-3-methoxy-pyridine-2-carboxamide] | – | ≥ 80 | –
22 | COc1ccc(Nc2cc(Cl)cc(Cl)c2)nc1C(=O)NCC(C)(C)C [Compound P-130, 6-(3,5-dichloroanilino)-N-(2,2-dimethylpropyl)-3-methoxy-pyridine-2-carboxamide] | ≥ 80 | ≥ 80 | –
23 | COc1ccc(Nc2ccc(C)cc2)nc1C(=O)NC(C)(C)C [Compound P-161, N-tert-butyl-3-methoxy-6-(4-methylanilino)pyridine-2-carboxamide] | ≥ 80 | – | –
24 | CC(C)(C)CNC(=O)c1nc(Nc2cc(F)nc(F)c2)ccc1O [Compound P-100, 6-[(2,6-difluoro-4-pyridyl)amino]-N-(2,2-dimethylpropyl)-3-hydroxy-pyridine-2-carboxamide] | ≥ 80 | – | –
25 | CC1(C)CCC1NC(=O)c1nc(Nc2ccc(F)nc2)ccc1O (stereo not drawn) [Compound P-13, N-(2,2-dimethylcyclobutyl)-6-[(6-fluoro-3-pyridyl)amino]-3-hydroxy-pyridine-2-carboxamide] | ≥ 80 | – | ≥ 80
26 | COc1ccc(Nc2cnsc2)nc1C(=O)NCCc1ccc(OC(F)(F)F)cc1 [Compound P-85, 6-(isothiazol-4-ylamino)-3-methoxy-N-[2-[4-(trifluoromethoxy)phenyl]ethyl]pyridine-2-carboxamide] | ≥ 80 | – | –
27 | COc1ccc(Nc2ccc(C(F)(F)F)c(F)c2)nc1C(=O)NC(C)(C)C [Compound P-154, N-tert-butyl-6-[3-fluoro-4-(trifluoromethyl)anilino]-3-methoxy-pyridine-2-carboxamide] | ≥ 80 | – | –
28 | COC(=O)N(c1cc(F)cc(F)c1)c1ccc(OC)c(C(=O)NC2CCC2(C)C)n1 (stereo not drawn) [Compound P-191, methyl N-(3,5-difluorophenyl)-N-[6-[(2,2-dimethylcyclobutyl)carbamoyl]-5-methoxy-2-pyridyl]carbamate] | ≥ 80 | ≥ 80 | –
29 | CC1(C)CCC1NC(=O)c1nc(Nc2ccc3c(c2)OCO3)ccc1O (stereo not drawn) [Compound P-17, 6-(1,3-benzodioxo1-5-ylamino)-N-(2,2-dimethylcyclobutyl)-3-hydroxy-pyridine-2-carboxamide] | – | – | ≥ 80
30 | COc1ccc(Nc2cc(F)cc(F)c2)nc1C(=O)NC1CCN(S(=O)(=O)C(C)C)CC1 [Compound P-77, 6-(3,5-difluoroanilino)-N-(1-isopropylsulfonyl-4-piperidyl)-3-methoxy-pyridine-2-carboxamide] | ≥ 80 | – | –
31 | COc1ccc(Nc2cnsc2)nc1C(=O)NCC1(C)CCOC2(CCC2)C1 (stereo not drawn) [Compound P-84, 6-(isothiazol-4-ylamino)-3-methoxy-N-[(8-methyl-5-oxaspiro[3.5]nonan-8-yl)methyl]pyridine-2-carboxamide] | ≥ 80 | – | –
32 | COc1ccc(NC2CCC2)nc1C(=O)NCC(C)(C)C [Compound P-41, 6-(cyclobutylamino)-N-(2,2-dimethylpropyl)-3-methoxy-pyridine-2-carboxamide] | – | ≥ 80 | –
33 | COc1ccc(Nc2cnsc2)nc1C(=O)NCc1ccc(Oc2ccccc2)cc1 [Compound P-81, 6-(isothiazol-4-ylamino)-3-methoxy-N-[(4-phenoxyphenyl)methyl]pyridine-2-carboxamide] | ≥ 80 | – | ≥ 80
